Where two headings read alike, the source gives them in different places.
What was measured:
[1] = tested on: OCI-LY10-BTK(C481S) cells; assay: Inhibitory activity on OCI-LY10-BTK(C481S) cell proliferation (CCK-8); format: cell-based; settings: 72 h incubation, IC50 per method, unit inferred
Method: OCI-LY10(C481S) cells in the logarithmic growth phase were collected and added to a centrifuge tube, adjusted to a cell density of 5×10^4 cells/mL, and seeded in a 96-well plate (100 μL/well). Meanwhile, compounds were added using a nanoliter pipettor such that the final concentrations of the compounds were 5000 nM-0.31 nM; the addition was performed in duplicate, and meanwhile, a control was set. After another 72 h of incubation in the cell incubator, the detection reagent CCK-8 (manufacturer: Dojindo Laboratories, Beijing; 10 μL/well) was added. After 3 h of incubation in the cell incubator, absorbance values were detected at 450 nm using a PerkinElmer Envision microplate reader, the four-parameter analysis was performed, the dose-response curves were fit, and IC50 was calculated.

OCI-LY10 cells = assay: Inhibitory activity on OCI-LY10 cell proliferation (CCK-8); format: cell-based
Method: (§1) OCI-LY10 cells in a good growth state were collected and added to a centrifuge tube, adjusted to a cell density of 1×10^5 cells/mL, and seeded in a 96-well plate (100 μL/well). The cells were incubated overnight in a cell incubator. Compounds were added using a nanoliter pipettor such that the final concentrations of the compounds were 5000 nM-0.31 nM; the addition was performed in duplicate, and meanwhile, a control was set. After another 72 h of incubation in the cell incubator, 10 μL of CCK-8 (CK04, PP799) was added. After 2.5 h of incubation in the cell incubator, absorbance values were detected at 450 nm using an Envision microplate reader, the four-parameter analysis was performed, the dose-response curves were fit, and IC50 was calculated.

BTK = BTK (Homo sapiens (Human), UniProt Q06187); assay: BTK degradation in OCI-LY10 cells (Total-BTK HTRF kit); format: cell-based; settings: 24 (or 6) h incubation; for Dmax / BTK degradation in OCI-LY10 cells Dmax: maximum degradation rate; for DC50: DC50 = concentration when degradation rate reaches 50%, read-out: OCI-LY10 cell BTK degradation DC50
BTK, sequence (Q06187 whole entry): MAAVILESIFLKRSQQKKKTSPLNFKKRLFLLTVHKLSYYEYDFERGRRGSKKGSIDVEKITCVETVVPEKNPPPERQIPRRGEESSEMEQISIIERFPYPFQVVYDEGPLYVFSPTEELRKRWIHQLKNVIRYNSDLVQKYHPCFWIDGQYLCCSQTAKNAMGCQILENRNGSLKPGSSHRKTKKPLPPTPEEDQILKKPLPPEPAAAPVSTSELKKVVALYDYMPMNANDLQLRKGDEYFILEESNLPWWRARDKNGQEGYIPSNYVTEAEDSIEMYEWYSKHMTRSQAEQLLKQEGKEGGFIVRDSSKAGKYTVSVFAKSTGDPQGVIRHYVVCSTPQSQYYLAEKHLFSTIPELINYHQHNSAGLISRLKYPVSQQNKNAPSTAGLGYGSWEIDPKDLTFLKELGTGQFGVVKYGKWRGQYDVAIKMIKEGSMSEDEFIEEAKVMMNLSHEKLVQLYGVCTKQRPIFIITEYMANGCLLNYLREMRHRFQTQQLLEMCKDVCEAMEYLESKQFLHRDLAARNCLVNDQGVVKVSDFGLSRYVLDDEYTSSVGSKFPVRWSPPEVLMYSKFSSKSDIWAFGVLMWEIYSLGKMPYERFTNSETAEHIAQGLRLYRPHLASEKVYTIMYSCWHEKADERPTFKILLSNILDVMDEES
Method: The detection was carried out using the Total-BTK Kits (cisbio, 63ADK064PEH), and 4× Supplemented Lysis buffer was prepared using the Blocking reagent stock solution (100×) and Lysis buffer stock solution (4×). Premixed antibody solutions were prepared using the Detection buffer, Total-BTK d2 antibody, and Total-BTK Eu Cryptate antibody.
OCI-LY10 cells in a good growth state were collected and added to a centrifuge tube, adjusted to a cell density of 4.17×10^6 cells/mL, and seeded in a 384-well plate (12 μL/well). The cells were incubated overnight in a cell incubator. Compounds were added using a nanoliter pipettor such that the final concentrations of the compounds were 100 nM-0.098 nM; the addition was performed in duplicate, and meanwhile, a control was set. After another 24 (or 6) h of incubation in the cell incubator, the 4× Supplemented Lysis buffer was added at 4 μL/well to lyse the cells. After the cells were shaken for 40 min at room temperature, the Premixed antibody solutions were added at 4 μL/well, and the cells were left to stand overnight at room temperature. Fluorescence values of the cells were detected at 665 nm/620 nm using an Envision microplate reader, the four-parameter analysis was performed, the dose-response curves were fit, and DC50 (the concentration of the drug when the degradation rate reaches 50%) and Dmax (the maximum degradation rate) were calculated.

TMD8-BTK(C481S) cells = assay: Inhibitory activity on TMD8-BTK(C481S) cell proliferation (CCK-8); format: cell-based; settings: 72 h incubation
Method: as §1, with “TMD8-BTK(C481S)” for “OCI-LY10”, “8×10^4” for “1×10^5”, “4” for “2.5”

Mouse pharmacokinetics = format: in vivo, ICR mice; settings: for clearance / half-life / AUC / Cmax: ICR, mouse, plasma; for AUC: read-out: AUC; for Cmax: read-out: Cmax
Method: ICR mice weighing 18-22 g were randomized into groups of 9 after 3-5 days of acclimatization and then intragastrically given the test compound solution at a dose of 10 mg/kg. Plasma samples to be tested were prepared by taking blood from the orbit at time points of 15 min, 30 min, 1 h, 2 h, 3 h, 4 h, 6 h, 8 h, 10 h, and 24 h. 20 μL of each plasma sample to be detected and a standard curve sample were taken, and an acetonitrile solution containing an internal standard was added. […] Pharmacokinetic parameters were fitted using a non-compartmental model (see Table 5).

[2] = Homo sapiens, OCI-Ly10, 72 h incubation
[3] = po, 10 mg/kg, Mouse i.g. 10 mpk

SMILES	IC50 (OCI-LY10 cells; [2]) [nM]	IC50 ([1]; 72 h) [nM]	Dmax (BTK; OCI-Ly10, OCI-LY10 cells) [%]	other results
CN1CCN([C@@H]2CCCN(c3cnc(C(N)=O)c(Nc4ccc(N5CCC(N6Cc7ccc8c(C9CCC(=O)NC9=O)noc8c7C6)CC5)cc4)n3)C2)C1=O (stereo partly drawn) [Compound 30]	< 0.31			IC50 [1]: 0.44 nM; Dmax (BTK; OCI-LY10 cells): > 90%
CN1CCN([C@@H]2CCCN(c3cnc(C(N)=O)c(Nc4ccc(N5CCC(N6CCc7ccc8c(C9CCC(=O)NC9=O)noc8c7CC6)CC5)cc4)n3)C2)C1=O (stereo partly drawn) [Compound 36]	< 0.31	0.024	95	DC50 (BTK; OCI-LY10 cells): < 0.098 nM
CN1CCN([C@@H]2CCCN(c3cnc(C(N)=O)c(Nc4ccc5c(c4)CCN(CC4Cc6ccc7c(C8CCC(=O)NC8=O)noc7c6C4)C5)n3)C2)C1=O (stereo partly drawn) [Compound 40]		0.51	> 90	
CN1CCN([C@@H]2CCCN(c3cnc(C(N)=O)c(Nc4ccc(N5CCC(CN6Cc7cc8onc(C9CCC(=O)NC9=O)c8cc7C6)CC5)cc4)n3)C2)C1=O (stereo partly drawn) [Compound 29]	< 0.31	0.35	> 90	
CN1CCN([C@@H]2CCCN(c3cnc(C(N)=O)c(Nc4ccc(N5CCC(N6CCc7ccc8c(C9CCC(=O)NC9=O)noc8c7C6)CC5)cc4)n3)C2)C1=O (stereo partly drawn) [Compound 34]	< 0.31	0.19	97	DC50 (BTK; OCI-LY10 cells): < 0.098 nM
CN1CCN([C@@H]2CCCN(c3cnc(C(N)=O)c(Nc4ccc(N5CCC(CN6Cc7ccc8c(C9CCC(=O)NC9=O)noc8c7C6)CC5)cc4)n3)C2)C1=O (stereo partly drawn) [Compound 24]	< 0.31	0.5	> 90	
CN1CCN([C@@H]2CCCN(c3cnc(C(N)=O)c(Nc4ccc(C5CCC6(CC5)CN(CC5CN(c7ccc8c(C9CCC(=O)NC9=O)noc8c7)C5)C6)cc4)n3)C2)C1=O (stereo partly drawn) [Compound 11]	< 0.31		99	DC50 (BTK; OCI-LY10 cells): < 0.098 nM; IC50 (TMD8-BTK(C481S) cells; 72 h): 14 nM
CN1CCN([C@@H]2CCCN(c3cnc(C(N)=O)c(Nc4ccc(C5CCN(C[C@@H]6CCC(n7ccc8c9c(C%10CCC(=O)NC%10=O)noc9ccc87)C6)CC5)cc4)n3)C2)C1=O (stereo partly drawn) [Compound 15]				IC50 [1]: < 0.31 nM; IC50 (OCI-LY10 cells; 72 h incubation): < 0.31 nM; DC50 (BTK; OCI-LY10 cells): < 0.098 nM; BTK degradation in OCI-LY10 cells Dmax (BTK; OCI-LY10 cells): 100%
CN1CCN([C@@H]2CCCN(c3cnc(C(N)=O)c(Nc4ccc(N5CCC(CN6CCc7ccc8c(C9CCC(=O)NC9=O)noc8c7C6)CC5)cc4)n3)C2)C1=O (stereo partly drawn) [Compound 26]	< 0.31	0.26	> 90	
CN1CCN([C@@H]2CCCN(c3cnc(C(N)=O)c(Nc4ccc(N5CCC(N6CCc7c(ccc8c(C9CCC(=O)NC9=O)noc78)C6)CC5)cc4)n3)C2)C1=O (stereo partly drawn) [Compound 35]	< 0.31	0.12	> 90	
CN1CCN([C@@H]2CCCN(c3cnc(C(N)=O)c(Nc4ccc(C5CCN(CC6CN(c7ccc8c(C9CCC(=O)NC9=O)noc8c7)C6)CC5)cc4)n3)C2)C1=O (stereo partly drawn) [Compound 9]	< 0.31		99	clearance (Mouse pharmacokinetics; iv, 1 mg/kg, Mouse i.v. 1 mpk): 0.331 L/h/kg; half-life (Mouse pharmacokinetics; iv, 1 mg/kg, Mouse i.v. 1 mpk): 1.5 h; AUC (Mouse pharmacokinetics; iv, 1 mg/kg, Mouse i.v. 1 mpk): 2.97 µg·h/mL; half-life (Mouse pharmacokinetics; [3]): 2.6 h; AUC (Mouse pharmacokinetics; [3]): 13.7 µg·h/mL; Cmax (Mouse pharmacokinetics; [3]): 1.39 µg/mL; F (Mouse pharmacokinetics; Mouse i.g. 10 mpk): 46.10%; DC50 (BTK; OCI-LY10 cells): < 0.098 nM; IC50 (TMD8-BTK(C481S) cells; 72 h): 1.2 nM
CN1CCN([C@@H]2CCCN(c3cnc(C(N)=O)c(Nc4ccc5c(c4)CCN(CC4Cc6ccc7c(C8CCC(=O)NC8=O)noc7c6C4)C5)n3)C2)C1=O (stereo partly drawn) [Compound 41]	< 0.31			IC50 [1]: 0.34 nM; BTK degradation in OCI-LY10 cells Dmax (BTK; OCI-LY10 cells): >90%
CN1CCN([C@@H]2CCCN(c3cnc(C(N)=O)c(Nc4ccc(C5CC6CCCC(C5)N6CC5Cc6ccc7c(C8CCC(=O)NC8=O)noc7c6C5)cc4)n3)C2)C1=O (stereo partly drawn) [Compound 82]				IC50 (OCI-LY10 cells; 72 h incubation): < 0.31 nM; BTK degradation in OCI-LY10 cells Dmax (BTK; OCI-LY10 cells): >90%; IC50 (TMD8-BTK(C481S) cells): 11 nM
CN1CCN([C@@H]2CCCN(c3cnc(C(N)=O)c(Nc4ccc(C5CC6CCCC(C5)N6C5Cc6ccc7c(C8CCC(=O)NC8=O)noc7c6C5)cc4)n3)C2)C1=O (stereo partly drawn) [Compound 80]				IC50 (OCI-LY10 cells; 72 h incubation): < 0.31 nM; BTK degradation in OCI-LY10 cells Dmax (BTK; OCI-LY10 cells): >90%; IC50 (TMD8-BTK(C481S) cells): 11 nM
CN1CCN([C@@H]2CCCN(c3cnc(C(N)=O)c(Nc4ccc(C5CC6CCCC(C5)N6CC5Cc6ccc7c(C8CCC(=O)NC8=O)noc7c6C5)cc4)n3)C2)C1=O (stereo partly drawn) [Compound 81]	< 0.31		> 90	IC50 (TMD8-BTK(C481S) cells; 72 h): 11 nM
CN1CCN([C@@H]2CCCN(c3cnc(C(N)=O)c(Nc4ccc5c(c4)CN(C4CN(CC6Cc7ccc8c(C9CCC(=O)NC9=O)noc8c7C6)C4)C5)n3)C2)C1=O (stereo partly drawn) [Compound 47]				IC50 [1]: 0.62 nM; BTK degradation in OCI-LY10 cells Dmax (BTK; OCI-LY10 cells): >90%

The next lines start with results.

IC50 (OCI-LY10 cells; [2]) [nM]	IC50 ([1]; 72 h) [nM]	Dmax (BTK; OCI-Ly10, OCI-LY10 cells) [%]	SMILES	other results
	0.78	> 90	NC(=O)c1ncc(N2CCCCC2)nc1Nc1ccc(C2CCN(C[C@@H]3CCC(n4ccc5c6c(C7CCC(=O)NC7=O)noc6ccc54)C3)CC2)cc1 (stereo partly drawn) [Compound 97]	
< 0.31		> 90	CN1CCN([C@@H]2CCCN(c3cnc(C(N)=O)c(Nc4ccc5c(c4)CCC4(CCN(CC6Cc7ccc8c(C9CCC(=O)NC9=O)noc8c7C6)CC4)O5)n3)C2)C1=O (stereo partly drawn) [Compound 77]	IC50 (TMD8-BTK(C481S) cells; 72 h): 23 nM
	0.56	> 90	CN1CCN([C@@H]2CCCN(c3cnc(C(N)=O)c(Nc4ccc5c(c4)CN(CC4Cc6ccc7c(C8CCC(=O)NC8=O)noc7c6C4)C5)n3)C2)C1=O (stereo partly drawn) [Compound 44]	
< 0.31		96	CN1CCN([C@@H]2CCCN(c3cnc(C(N)=O)c(Nc4ccc(C5CCC6(CC5)CN(CC5Cc7ccc8c(C9CCC(=O)NC9=O)noc8c7C5)C6)cc4)n3)C2)C1=O (stereo partly drawn) [Compound 53]	DC50 (BTK; OCI-LY10 cells): < 0.098 nM; IC50 (TMD8-BTK(C481S) cells): 2.8 nM
< 0.31	0.31	> 90	CN1CCN([C@@H]2CCCN(c3cnc(C(N)=O)c(Nc4ccc(C5CCN(CC6CN(c7cc8onc(C9CCC(=O)NC9=O)c8c8ccccc78)C6)CC5)cc4)n3)C2)C1=O (stereo partly drawn) [Compound 96]	
	0.66	> 90	CN1CCN([C@@H]2CCCN(c3cnc(C(N)=O)c(Nc4ccc5c(c4)CN(C4CN(CC6Cc7ccc8c(C9CCC(=O)NC9=O)noc8c7C6)C4)C5)n3)C2)C1=O (stereo partly drawn) [Compound 46]	
< 0.31		> 90	NC(=O)c1ncc(N2CCCCC2)nc1Nc1ccc(N2CCC(N3CCc4ccc5c(C6CCC(=O)NC6=O)noc5c4CC3)CC2)cc1 (stereo not drawn) [Compound 62]	IC50 (TMD8-BTK(C481S) cells; 72 h): 8.2 nM
< 0.31		> 90	CN1CCN([C@@H]2CCCN(c3cnc(C(N)=O)c(Nc4ccc(C5CCN(CC6Cc7ccc8c(C9CCC(=O)NC9=O)noc8c7C6)CC5)cc4)n3)C2)C1=O (stereo partly drawn) [Compound 89]	clearance (Mouse pharmacokinetics; iv, 1 mg/kg, Mouse i.v. 1 mpk): 0.103 L/h/kg; half-life (Mouse pharmacokinetics; iv, 1 mg/kg, Mouse i.v. 1 mpk): 2.8 h; AUC (Mouse pharmacokinetics; iv, 1 mg/kg, Mouse i.v. 1 mpk): 9.7 µg·h/mL; half-life (Mouse pharmacokinetics; [3]): 3 h; AUC (Mouse pharmacokinetics; [3]): 23.7 µg·h/mL; Cmax (Mouse pharmacokinetics; [3]): 1.88 µg/mL; F (Mouse pharmacokinetics; Mouse i.g. 10 mpk): 24.5%; IC50 (TMD8-BTK(C481S) cells): 20 nM
